Test results: article PMC7345836, “Absorption and Tissue Distribution of Siphonaxanthin from Green Algae” (Marine Drugs, 2020)

Key:
[1] = tested on: Caco-2 cells; assay: Uptake and metabolism of micellar siphonaxanthin by differentiated Caco-2 cells; assay type: in vitro ADME, human; conditions: Caco-2 cells incubated with 1 nmol/well siphonaxanthin solubilized micelles for 1, 3, 6 and 24 h
Protocol: Caco-2 cells obtained from the RIKEN Gene Bank (Tsukuba, Japan) were cultured in Dulbecco’s Modified Eagle’s Medium (DMEM) containing 10% fetal bovine serum (FBS), 1% penicillin-streptomycin (PS), and 1% non-essential amino acids in a humidified atmosphere of 95% air and 5% CO2 at 37 °C. For differentiation, cells were seeded in 12-well plates at a density of 2.0 × 10^5 cells/well in 1 mL DMEM medium described above and allowed to differentiate until day 22 from seeding. The medium was regularly changed three times a week. Experiments were performed at day 22 post-seeding on 12-well plates.
Siphonaxanthin solubilized in micelles was added to the medium for treatment, and micelle formation was performed as previously described. […] The concentration of micellar carotenoid was determined as 1.0 ± 0.05 μmol/L by HPLC before use in the following experiment.
The cell monolayers on 12-well plates were rinsed with the serum-free medium and then incubated in 1 mL of medium containing micellar siphonaxanthin. […] The residue was dissolved in methanol and subjected to quantitative and qualitative analysis. […] The concentration of siphonaxanthin in the medium was also analyzed. An aliquot of the medium was mixed with 4-fold methanol and subjected to the above HPLC analysis for quantify. […]

[2] = Tissue distribution and accumulation of siphonaxanthin and its metabolites in mice after 16-day dietary supplementation (HPLC); assay type: in vivo; conditions: ICR mice
Protocol: (§1) All experimental animal protocols were approved by the Animal Experimentation Committee of Kyoto University, Japan, for the care and use of experimental animals (Approval No. 26–35). Male ICR mice (7 weeks of age) were purchased from Japan SLC, Inc. (Hamamatsu, Japan). All mice were housed individually and maintained on an alternating 12-h light/dark cycle at a temperature of 23 ± 1 °C and free access to drinking water and chow (Oriental Yeast Co., Ltd., Tokyo, Japan). After an acclimatization period of 1 week, the mice were randomly divided into control and siphonaxanthin groups (n = 4 per group). Mice in the control group were fed an AIN-93G diet. The siphonaxanthin mouse group was fed the AIN-93G diet with siphonaxanthin supplementation, 65.79 nmol/g of diet (0.004%). The total food intake and body weight were recorded daily. After dietary supplementation for 16 days, the mice were anesthetized with isoflurane. Blood was collected from the caudal vena cava. Plasma was prepared by centrifuging at 400 g for 15 min at 4 °C. The tissues were rapidly removed, weighed, and immediately frozen in liquid nitrogen, and stored at −80 °C until use.
Carotenoids were then extracted from the plasma and tissues. Briefly, aliquots of tissue samples (0.2 g) were homogenized in a 9-fold volume of 0.9% NaCl saline with a homogenizer dispenser (T10 basic ULTRA-TURRAX, IKA). Plasma samples were diluted with a 3-fold volume of Milli-Q water. The resultant tissue homogenates (0.9 mL) or diluent plasma samples (0.9 mL) were mixed with 3 mL of dichloromethane/methanol (2:1, v/v) to extract carotenoids. The samples were extracted three times, and the dichloromethane layer was collected after centrifugation at 1690 g at 4 °C for 10 min. After evaporation under nitrogen, the residue was resuspended in 20 μL of dichloromethane and methanol (1:1, v/v) for HPLC analysis.
HPLC analysis was performed using a Prominence LC system (Shimadzu, Kyoto, Japan) connected to a photodiode array detector (SPD-M20A, Shimadzu, Kyoto, Japan), followed by an ion trap-time of flight mass spectrometer (LCMS-IT-TOF, Shimadzu, Kyoto, Japan) equipped with an atmospheric pressure chemical ionization (APCI) source or electrospray ionization (ESI) source. Siphonaxanthin was separated on a TSK gel ODS-80Ts QA column (2.0 × 250 mm, 5 μm, Tosoh, Tokyo, Japan). The binary gradient mobile phase was methanol/water (83:17, v/v) containing 0.1% ammonium acetate as mobile phase A and ethyl acetate/methanol (30:70, v/v) containing 0.1% ammonium acetate as mobile phase B. The column was eluted at a flow rate of 0.2 mL/min using the following gradients: 0–30 min, 0% B; 30–45 min, 0–100% B; 45–60 min, 100% B; 60–65 min, 100–0% B; 65–70 min, 0% B. Siphonaxanthin was detected at 450 nm. The APCI source was heated at 200 °C, and the probe was maintained at 400 °C. Nitrogen was used as sheath gas at 2.0 L/min, and drying gas was used at 25 kPa. Mass spectra were recorded in the positive ion mode. For the ESI source, sheath gas was set at 1.5 L/min, and drying gas was used at 120 kPa. A spray voltage of 4.5 kV was used for positive ionization. The peak identities of siphonaxanthin and its possible metabolites were further confirmed from their characteristic UV-vis spectra and their positive ions. Siphonaxanthin was quantified from its peak area at 450 nm using an external standard calibration curve with purified siphonaxanthin. Due to the unavailability of standards, possible metabolites of siphonaxanthin were estimated from the siphonaxanthin standard curve.

[3] = Body weight, food intake and tissue weight of ICR mice fed siphonaxanthin diet; assay type: in vivo
Protocol: as §1

[4] = siphonaxanthin diet vs control diet, 16 days

Concentration in brain ([2]; Brain, 16-day diet with siphonaxanthin 65.79 nmol/g, mean ± SEM, n = 4, N.D., not detected): 0.4 ± 0.3 pmol/g | % of the total carotenoids in brain ([2]; Brain, 16-day siphonaxanthin diet): 100% | Concentration in colon ([2]; Colon, 16-day diet with siphonaxanthin 65.79 nmol/g, mean ± SEM, n = 4): 198 ± 24.5 pmol/g | % of the total carotenoids in colon ([2]; Colon, 16-day siphonaxanthin diet): 82.5% | % of the total carotenoids in epididymal WAT ([2]; Epididymal WAT, 16-day siphonaxanthin diet): 14.6% | Concentration in epididymal WAT ([2]; Epididymal white adipose tissue, 16-day diet with siphonaxanthin 65.79 nmol/g, mean ± SEM, n = 4, N.D., not detected): 27.8 ± 14.3 pmol/g | Concentration in heart ([2]; Heart, 16-day diet with siphonaxanthin 65.79 nmol/g, mean ± SEM, n = 4): 67.1 ± 25.2 pmol/g | % of the total carotenoids in heart ([2]; Heart, 16-day siphonaxanthin diet): 52.2% | Concentration in BAT ([2]; Interscapular brown adipose tissue, 16-day diet with siphonaxanthin 65.79 nmol/g, mean ± SEM, n = 4): 30.5 ± 11.4 pmol/g | % of the total carotenoids in BAT ([2]; Interscapular brown adipose tissue, 16-day siphonaxanthin diet): 41.7% | Concentration in kidney ([2]; Kidney, 16-day diet with siphonaxanthin 65.79 nmol/g, mean ± SEM, n = 4): 38.2 ± 15.7 pmol/g | % of the total carotenoids in kidney ([2]; Kidney, 16-day siphonaxanthin diet): 84.1% | Concentration in liver ([2]; Liver, 16-day diet with siphonaxanthin 65.79 nmol/g, mean ± SEM, n = 4): 37.1 ± 14.4 pmol/g | % of the total carotenoids in liver ([2]; Liver, 16-day siphonaxanthin diet): 18.7% | Concentration in lung ([2]; Lung, 16-day diet with siphonaxanthin 65.79 nmol/g, mean ± SEM, n = 4): 22.9 ± 8.2 pmol/g | % of the total carotenoids in lung ([2]; Lung, 16-day siphonaxanthin diet): 38.8% | % of the total carotenoids in mesenteric WAT ([2]; Mesenteric WAT, 16-day siphonaxanthin diet): 24.5% | Concentration in mesenteric WAT ([2]; Mesenteric white adipose tissue, 16-day diet with siphonaxanthin 65.79 nmol/g, mean ± SEM, n = 4): 110 ± 50.8 pmol/g | Concentration in muscle ([2]; Muscle, 16-day diet with siphonaxanthin 65.79 nmol/g, mean ± SEM, n = 4): 14.2 ± 7.5 pmol/g | % of the total carotenoids in muscle ([2]; Muscle, 16-day siphonaxanthin diet): 52.6% | Concentration in pancreas ([2]; Pancreas, 16-day diet with siphonaxanthin 65.79 nmol/g, mean ± SEM, n = 4): 46.1 ± 12.5 pmol/g | % of the total carotenoids in pancreas ([2]; Pancreas, 16-day siphonaxanthin diet): 45.4% | % of the total carotenoids in perirenal WAT ([2]; Perirenal WAT, 16-day siphonaxanthin diet): 13.3% | Concentration in perirenal WAT ([2]; Perirenal white adipose tissue, 16-day diet with siphonaxanthin 65.79 nmol/g, mean ± SEM, n = 4): 22.1 ± 12.0 pmol/g | % of the total carotenoids in plasma ([2]; Plasma, 16-day siphonaxanthin diet): 5.5% | Concentration in small intestine ([2]; Small intestine, 16-day diet with siphonaxanthin 65.79 nmol/g, mean ± SEM, n = 4): 3428 ± 1389 pmol/g | % of the total carotenoids in small intestine ([2]; Small intestine, 16-day siphonaxanthin diet): 79.5% | Concentration in spleen ([2]; Spleen, 16-day diet with siphonaxanthin 65.79 nmol/g, mean ± SEM, n = 4): 20.6 ± 3.4 pmol/g | % of the total carotenoids in spleen ([2]; Spleen, 16-day siphonaxanthin diet): 45.7% | Concentration in stomach ([2]; Stomach, 16-day diet with siphonaxanthin 65.79 nmol/g, mean ± SEM, n = 4, siphonaxanthin standard curve): 2054 ± 636 pmol/g | % of the total carotenoids in stomach ([2]; Stomach, 16-day siphonaxanthin diet): 94.0% | Concentration in testis ([2]; Testis, 16-day diet with siphonaxanthin 65.79 nmol/g, mean ± SEM, n = 4): 25.0 ± 10.0 pmol/g | % of the total carotenoids in testis ([2]; Testis, 16-day siphonaxanthin diet): 84.3% | concentration at 16 days ([2]; male, mouse, oral, 65.79 nmol/g of diet, Plasma, 16-day diet with siphonaxanthin 65.79 nmol/g, mean ± SEM, n = 4): 18.3 ± 4 nM
SMILES: CC1=C[C@H](O)CC(C)(C)[C@H]1/C=C/C(C)=C/C=C/C(C)=C/C=C/C=C(C)/C=C/C=C(\CO)C(=O)CC1=C(C)C[C@@H](O)CC1(C)C [Siphonaxanthin, 3,19,3’-Trihydroxy-7,8-dihydro-β,ε-caroten-8-one]
Cellular concentration of siphonaxanthin [1]: rapidly and linearly increased until 3 h after incubation, and then gradually increased until 24 h | Concentration of siphonaxanthin in the medium [1]: decreased with increasing incubation time | Body weight [3, 4]: not altered | Weight of the other tissues [3, 4]: did not significantly decrease | Weight of the spleen ([3]; siphonaxanthin diet vs control diet, 16 days, p < 0.05): significantly decreased | Food intake ([3]; siphonaxanthin vs control group, 16-day experimental period): not altered
